Data reported in ChEMBL document CHEMBL1148572, “1-((S)-2-aminopropyl)-1H-indazol-6-ol: a potent peripherally acting 5-HT2 receptor agonist with ocular hypotensive activity” (J Med Chem, 2006).

What was measured:
[1] = target: GABA-A receptor; benzodiazepine site (Homo sapiens) (UniProt P14867+P18507+P48169+Q99928+P34903+Q8N1C3+P47869+P31644+Q16445); test: Inhibition of central benzodiazepine site on GABAA receptor at 10 uM; format: protein-complex assay
[2] = target: Glutamate receptor ionotropic AMPA (Homo sapiens) (UniProt P48058+P42263+P42262+P42261); test: Inhibition of AMPA receptor at 1 nM; format: protein-complex assay
[3] = target: T1, Opioid receptors; mu/kappa/delta (Homo sapiens) (UniProt P41145+P41143+P35372); test: Inhibition of non selective binding to opiate receptor at 1 nM; format: protein assay
T1 sequence (P35372 whole entry, looked up): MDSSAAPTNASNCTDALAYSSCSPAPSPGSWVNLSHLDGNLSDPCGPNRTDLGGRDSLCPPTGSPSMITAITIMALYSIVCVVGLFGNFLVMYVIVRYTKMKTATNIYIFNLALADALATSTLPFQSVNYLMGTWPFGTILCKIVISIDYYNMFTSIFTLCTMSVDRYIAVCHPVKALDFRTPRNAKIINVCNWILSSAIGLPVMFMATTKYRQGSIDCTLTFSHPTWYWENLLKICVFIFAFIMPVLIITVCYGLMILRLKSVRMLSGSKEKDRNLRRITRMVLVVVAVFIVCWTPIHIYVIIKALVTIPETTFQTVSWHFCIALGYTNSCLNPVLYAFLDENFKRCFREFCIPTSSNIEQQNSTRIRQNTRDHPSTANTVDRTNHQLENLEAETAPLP
T1 sequence (P41143 whole entry, looked up): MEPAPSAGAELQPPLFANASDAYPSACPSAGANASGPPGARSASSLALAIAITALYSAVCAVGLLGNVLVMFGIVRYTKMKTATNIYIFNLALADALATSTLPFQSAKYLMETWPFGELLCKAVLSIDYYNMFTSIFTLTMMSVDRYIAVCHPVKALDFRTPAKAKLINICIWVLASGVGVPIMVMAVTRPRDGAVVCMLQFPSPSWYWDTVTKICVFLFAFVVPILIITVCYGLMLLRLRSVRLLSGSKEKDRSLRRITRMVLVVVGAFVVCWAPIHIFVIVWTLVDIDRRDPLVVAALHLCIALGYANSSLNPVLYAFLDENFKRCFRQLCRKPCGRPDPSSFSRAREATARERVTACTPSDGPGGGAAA
T1 sequence (P41145 whole entry, looked up): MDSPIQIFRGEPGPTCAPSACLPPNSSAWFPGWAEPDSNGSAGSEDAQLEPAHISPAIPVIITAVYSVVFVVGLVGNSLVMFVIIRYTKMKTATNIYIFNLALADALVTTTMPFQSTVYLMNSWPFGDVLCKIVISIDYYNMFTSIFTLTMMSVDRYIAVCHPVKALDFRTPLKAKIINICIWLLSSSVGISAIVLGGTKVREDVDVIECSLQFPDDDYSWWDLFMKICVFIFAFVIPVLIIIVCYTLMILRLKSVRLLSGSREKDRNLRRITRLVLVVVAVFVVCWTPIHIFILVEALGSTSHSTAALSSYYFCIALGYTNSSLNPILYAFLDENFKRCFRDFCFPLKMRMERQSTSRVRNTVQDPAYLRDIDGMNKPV

[4] = target: T1, Opioid receptors; mu/kappa/delta (Homo sapiens); test: Inhibition of non selective binding to opiate receptor at 10 uM; format: protein assay
[5] = target: T2, monoamine oxidase B (MAO-B) (Rattus norvegicus, UniProt P19643); test: Inhibition of monoamine oxidase B in rat brain at 1 nM; format: tissue-based
T2 sequence (P19643 whole entry): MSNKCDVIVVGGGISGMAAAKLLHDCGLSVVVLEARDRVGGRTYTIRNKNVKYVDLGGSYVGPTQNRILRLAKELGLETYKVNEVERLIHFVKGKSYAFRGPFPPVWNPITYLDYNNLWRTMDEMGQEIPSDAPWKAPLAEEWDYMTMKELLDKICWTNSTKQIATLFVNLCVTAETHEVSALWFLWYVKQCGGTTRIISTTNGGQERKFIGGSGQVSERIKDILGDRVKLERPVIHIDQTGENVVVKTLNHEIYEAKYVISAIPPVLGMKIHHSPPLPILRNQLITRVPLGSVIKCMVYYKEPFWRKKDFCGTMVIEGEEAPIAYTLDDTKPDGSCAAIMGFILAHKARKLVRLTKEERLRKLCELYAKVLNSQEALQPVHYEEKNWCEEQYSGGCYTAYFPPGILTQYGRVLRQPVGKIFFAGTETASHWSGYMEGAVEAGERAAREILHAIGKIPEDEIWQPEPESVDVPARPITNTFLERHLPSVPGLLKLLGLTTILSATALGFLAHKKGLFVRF

[6] = Inhibitory activity at site 2 of sodium channel at 10 uM
[7] = target: T3, 5-hydroxytryptamine receptor 1A (Homo sapiens) (UniProt P08908); test: Inhibition of forskolin activated adenylate cyclase at 10 uM; format: functional
T3 sequence (whole entry): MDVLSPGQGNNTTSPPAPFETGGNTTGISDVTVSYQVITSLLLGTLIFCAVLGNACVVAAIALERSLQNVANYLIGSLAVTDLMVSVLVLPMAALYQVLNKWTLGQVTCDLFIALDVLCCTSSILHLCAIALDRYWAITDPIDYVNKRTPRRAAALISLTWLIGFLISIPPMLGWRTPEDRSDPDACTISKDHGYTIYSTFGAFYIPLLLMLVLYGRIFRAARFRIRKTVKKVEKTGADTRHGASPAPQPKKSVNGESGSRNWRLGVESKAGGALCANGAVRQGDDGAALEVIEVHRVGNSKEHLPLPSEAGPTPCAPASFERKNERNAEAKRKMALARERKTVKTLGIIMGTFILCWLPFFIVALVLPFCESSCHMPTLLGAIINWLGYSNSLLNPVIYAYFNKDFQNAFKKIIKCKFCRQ

[8] = target: Leukotriene B4 receptor (Homo sapiens) (UniProt Q9NPC1+Q15722); test: Inhibition of leukotriene B4 at 100 nM; format: protein assay
Sequence of Leukotriene B4 receptor (Homo sapiens) (Q15722 whole entry, looked up): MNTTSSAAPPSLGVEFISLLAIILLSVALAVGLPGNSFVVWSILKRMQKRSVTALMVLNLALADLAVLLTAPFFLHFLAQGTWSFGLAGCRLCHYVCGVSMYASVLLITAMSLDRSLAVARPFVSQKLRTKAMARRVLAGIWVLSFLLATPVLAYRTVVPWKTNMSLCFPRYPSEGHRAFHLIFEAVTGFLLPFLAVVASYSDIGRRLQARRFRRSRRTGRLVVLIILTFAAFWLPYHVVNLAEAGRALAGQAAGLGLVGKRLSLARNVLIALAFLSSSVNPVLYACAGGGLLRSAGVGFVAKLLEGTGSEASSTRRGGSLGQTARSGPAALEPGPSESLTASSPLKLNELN
Sequence of Leukotriene B4 receptor (Homo sapiens) (Q9NPC1 whole entry, looked up): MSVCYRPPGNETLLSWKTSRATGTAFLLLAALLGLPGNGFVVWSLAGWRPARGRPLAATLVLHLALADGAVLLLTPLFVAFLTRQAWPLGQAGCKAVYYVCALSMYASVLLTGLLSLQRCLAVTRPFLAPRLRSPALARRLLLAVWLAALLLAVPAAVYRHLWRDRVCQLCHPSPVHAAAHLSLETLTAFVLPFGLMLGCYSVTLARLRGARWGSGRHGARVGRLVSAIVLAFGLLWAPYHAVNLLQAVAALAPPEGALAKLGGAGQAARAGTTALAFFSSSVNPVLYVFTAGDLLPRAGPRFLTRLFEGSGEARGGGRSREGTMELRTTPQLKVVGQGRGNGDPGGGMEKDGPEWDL

[9] = target: T4, Atrial natriuretic peptide receptor 1 (Homo sapiens) (UniProt P16066); test: Inhibition of ANP A at 100 nM
T4 sequence (whole entry): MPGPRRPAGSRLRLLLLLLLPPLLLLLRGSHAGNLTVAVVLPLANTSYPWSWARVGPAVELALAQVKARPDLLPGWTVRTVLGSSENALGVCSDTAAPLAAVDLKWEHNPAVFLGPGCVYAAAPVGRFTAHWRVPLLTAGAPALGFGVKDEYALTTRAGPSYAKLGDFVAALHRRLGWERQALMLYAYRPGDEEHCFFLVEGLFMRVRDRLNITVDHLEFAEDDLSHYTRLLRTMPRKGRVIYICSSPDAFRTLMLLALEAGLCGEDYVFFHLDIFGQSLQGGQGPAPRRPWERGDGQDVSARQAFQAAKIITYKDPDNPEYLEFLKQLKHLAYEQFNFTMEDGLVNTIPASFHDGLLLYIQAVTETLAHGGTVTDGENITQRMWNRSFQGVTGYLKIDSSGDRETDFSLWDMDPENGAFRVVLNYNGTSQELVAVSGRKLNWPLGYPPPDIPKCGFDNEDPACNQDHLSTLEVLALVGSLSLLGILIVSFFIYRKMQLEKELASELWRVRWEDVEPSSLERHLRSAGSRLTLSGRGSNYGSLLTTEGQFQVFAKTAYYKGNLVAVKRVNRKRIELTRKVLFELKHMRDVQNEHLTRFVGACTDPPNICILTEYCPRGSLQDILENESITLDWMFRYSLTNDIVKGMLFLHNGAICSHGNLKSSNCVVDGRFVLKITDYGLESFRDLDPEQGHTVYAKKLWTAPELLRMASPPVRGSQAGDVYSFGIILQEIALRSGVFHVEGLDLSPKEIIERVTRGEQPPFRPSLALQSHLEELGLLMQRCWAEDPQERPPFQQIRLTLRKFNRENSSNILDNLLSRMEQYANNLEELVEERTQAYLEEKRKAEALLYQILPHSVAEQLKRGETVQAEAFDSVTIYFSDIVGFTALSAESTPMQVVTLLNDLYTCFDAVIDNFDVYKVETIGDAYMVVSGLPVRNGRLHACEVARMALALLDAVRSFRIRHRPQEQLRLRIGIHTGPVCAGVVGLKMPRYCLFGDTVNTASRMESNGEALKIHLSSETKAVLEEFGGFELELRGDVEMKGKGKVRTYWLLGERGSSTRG

[10] = target: Platelet-activating factor receptor (Homo sapiens) (UniProt P25105); test: Inhibition of PAF at 10 uM
Sequence of Platelet-activating factor receptor (Homo sapiens) (P25105 whole entry): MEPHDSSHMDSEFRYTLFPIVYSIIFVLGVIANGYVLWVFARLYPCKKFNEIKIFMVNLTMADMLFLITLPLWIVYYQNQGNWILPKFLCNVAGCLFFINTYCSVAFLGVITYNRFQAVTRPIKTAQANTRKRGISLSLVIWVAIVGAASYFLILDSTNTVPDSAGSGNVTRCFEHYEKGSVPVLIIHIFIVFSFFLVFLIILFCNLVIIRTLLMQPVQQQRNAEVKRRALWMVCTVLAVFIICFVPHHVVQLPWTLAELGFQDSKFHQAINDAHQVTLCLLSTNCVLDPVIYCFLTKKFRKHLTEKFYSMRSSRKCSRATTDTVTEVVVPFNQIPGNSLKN

[11] = target: Substance-P receptor (Homo sapiens) (UniProt P25103); test: Inhibition of neurokinin 1 receptor at 10 uM
Sequence of Substance-P receptor (Homo sapiens) (P25103 whole entry): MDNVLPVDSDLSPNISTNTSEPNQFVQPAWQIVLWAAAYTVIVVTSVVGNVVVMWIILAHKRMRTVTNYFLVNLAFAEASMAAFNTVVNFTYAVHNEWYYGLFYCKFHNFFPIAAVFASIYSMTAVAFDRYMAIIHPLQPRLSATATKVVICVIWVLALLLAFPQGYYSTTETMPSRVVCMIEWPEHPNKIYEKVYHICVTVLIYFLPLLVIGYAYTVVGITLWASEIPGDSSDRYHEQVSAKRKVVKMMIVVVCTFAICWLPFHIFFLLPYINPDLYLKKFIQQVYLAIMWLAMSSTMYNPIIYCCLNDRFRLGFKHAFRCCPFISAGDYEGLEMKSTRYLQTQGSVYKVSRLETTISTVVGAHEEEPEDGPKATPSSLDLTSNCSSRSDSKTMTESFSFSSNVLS

[12] = Inhibition of non selective binding to VIP at 100 nM
[13] = target: 5-hydroxytryptamine receptor 4 (Homo sapiens, UniProt Q13639); test: Inhibitory activity against 5HT4 receptor
Sequence of 5-hydroxytryptamine receptor 4 (Q13639 whole entry): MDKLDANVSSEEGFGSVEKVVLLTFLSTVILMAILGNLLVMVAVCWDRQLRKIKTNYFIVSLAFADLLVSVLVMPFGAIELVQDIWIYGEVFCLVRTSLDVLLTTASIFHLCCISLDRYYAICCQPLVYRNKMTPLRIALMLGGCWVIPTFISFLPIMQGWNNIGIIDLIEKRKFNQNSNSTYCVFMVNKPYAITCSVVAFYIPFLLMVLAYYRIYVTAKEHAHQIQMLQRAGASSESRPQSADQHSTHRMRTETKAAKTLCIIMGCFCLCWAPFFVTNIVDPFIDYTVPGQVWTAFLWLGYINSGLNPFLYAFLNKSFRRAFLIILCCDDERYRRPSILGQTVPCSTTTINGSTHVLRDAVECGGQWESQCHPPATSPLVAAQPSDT

[14] = target: Sodium-dependent noradrenaline transporter (Homo sapiens, UniProt P23975); test: Inhibitory activity against NET
Sequence of Sodium-dependent noradrenaline transporter (P23975 whole entry): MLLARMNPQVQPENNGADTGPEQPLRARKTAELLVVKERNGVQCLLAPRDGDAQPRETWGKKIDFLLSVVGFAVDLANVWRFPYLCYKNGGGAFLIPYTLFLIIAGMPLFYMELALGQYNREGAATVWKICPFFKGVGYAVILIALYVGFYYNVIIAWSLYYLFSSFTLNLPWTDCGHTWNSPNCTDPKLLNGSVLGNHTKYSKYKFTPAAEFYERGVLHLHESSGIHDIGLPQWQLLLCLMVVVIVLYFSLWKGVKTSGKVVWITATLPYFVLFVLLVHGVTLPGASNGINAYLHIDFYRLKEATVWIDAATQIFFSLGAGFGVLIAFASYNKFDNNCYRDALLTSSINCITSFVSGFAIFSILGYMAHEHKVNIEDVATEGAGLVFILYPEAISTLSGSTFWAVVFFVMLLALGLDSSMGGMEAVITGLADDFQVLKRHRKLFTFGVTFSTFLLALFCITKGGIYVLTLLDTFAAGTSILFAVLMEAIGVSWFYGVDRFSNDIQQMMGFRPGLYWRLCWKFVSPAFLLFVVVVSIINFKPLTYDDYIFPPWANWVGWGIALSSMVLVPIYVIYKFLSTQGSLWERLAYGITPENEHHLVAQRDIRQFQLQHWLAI

[15] = target: Adrenergic receptor beta (Homo sapiens) (UniProt P08588+P07550+P13945); test: Inhibition of non selective binding to adrenergic beta receptor at 10 uM; format: protein assay

## C[C@H](N)Cn1ncc2ccc(O)cc21
[1]
  inhibition: 22.8%
[2]
  inhibition: 9.31%
[3]
  inhibition: -6.1%
[4]
  inhibition: 63.3%
[5]
  inhibition at 0.001 µM: -15.4%
[6]
  inhibition: -0.61%
[7]
  inhibition: 4.1%
[8]
  inhibition: 15.8%
[9]
  inhibition: 3.01%
[10]
  inhibition: 34.4%
[11]
  inhibition: 33%
[12]
  inhibition: 5.41%
[13]
  Ki: 0.515 µM
[14]
  Ki: > 10 µM
[15]
  inhibition: 30.4%
